Experiments:
Ephrin type-B receptor 4 [1] = target: T1, Ephrin type-B receptor 4 (Homo sapiens, UniProt P54760); test: Inhibition of Myc-His-tagged EphB4 expressed in CHOK1 cells assessed as phosphorylation by ELISA; format: cell-based, CHO-K1
T1 sequence (P54760 whole entry): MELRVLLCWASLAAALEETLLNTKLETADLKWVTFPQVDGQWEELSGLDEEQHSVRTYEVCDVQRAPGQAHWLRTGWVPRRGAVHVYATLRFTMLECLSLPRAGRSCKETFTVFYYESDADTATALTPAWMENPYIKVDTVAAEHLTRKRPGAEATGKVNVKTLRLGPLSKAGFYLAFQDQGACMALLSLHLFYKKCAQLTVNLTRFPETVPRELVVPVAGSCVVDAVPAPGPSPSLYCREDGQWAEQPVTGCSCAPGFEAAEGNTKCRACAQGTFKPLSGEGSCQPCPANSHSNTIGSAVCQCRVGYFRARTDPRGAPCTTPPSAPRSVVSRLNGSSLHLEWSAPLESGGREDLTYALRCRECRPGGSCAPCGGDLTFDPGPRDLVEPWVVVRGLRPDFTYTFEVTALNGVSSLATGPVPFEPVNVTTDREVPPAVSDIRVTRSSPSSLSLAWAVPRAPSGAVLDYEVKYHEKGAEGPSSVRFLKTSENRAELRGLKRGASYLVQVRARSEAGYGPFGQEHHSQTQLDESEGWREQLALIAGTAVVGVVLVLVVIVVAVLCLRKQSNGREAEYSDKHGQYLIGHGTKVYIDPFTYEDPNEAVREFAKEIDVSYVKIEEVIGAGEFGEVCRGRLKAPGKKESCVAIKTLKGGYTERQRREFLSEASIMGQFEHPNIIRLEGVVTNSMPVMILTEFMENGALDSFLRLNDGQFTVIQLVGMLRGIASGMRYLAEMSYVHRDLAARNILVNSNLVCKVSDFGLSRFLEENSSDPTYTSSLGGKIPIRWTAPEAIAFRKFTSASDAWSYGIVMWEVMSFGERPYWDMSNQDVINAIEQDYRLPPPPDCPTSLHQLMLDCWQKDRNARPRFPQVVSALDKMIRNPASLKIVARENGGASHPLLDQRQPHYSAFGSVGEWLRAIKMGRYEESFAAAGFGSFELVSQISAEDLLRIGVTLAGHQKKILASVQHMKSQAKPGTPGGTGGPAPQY

Ephrin type-B receptor 4 [2] = target: T1, Ephrin type-B receptor 4; test: Inhibition of EphB4

IC50 (Ephrin type-B receptor 4 [1]) [nM]	IC50 (Ephrin type-B receptor 4 [2]) [nM]	SMILES
172		NS(=O)(=O)c1cccc(Nc2nccc(Nc3c(Cl)ccc4c3OCO4)n2)c1
> 30000	77	NC(=O)c1cc(Nc2nccc(Nc3c(Cl)ccc4c3OCO4)n2)cc(C(N)=O)c1
14100	1	CS(=O)(=O)Nc1cc(Nc2nccc(Nc3c(Cl)ccc4c3OCO4)n2)cc(S(N)(=O)=O)c1
7170	15	CS(=O)(=O)Nc1cc(Nc2nccc(Nc3c(Cl)ccc4c3OCO4)n2)cc(NS(C)(=O)=O)c1
209	114	CS(=O)(=O)c1cc(Nc2nccc(Nc3c(Cl)ccc4c3OCO4)n2)cc(S(C)(=O)=O)c1
22200	23	CS(=O)(=O)c1cc(Nc2nccc(Nc3c(Cl)ccc4c3OCO4)n2)cc(C(N)=O)c1
32	2	CS(=O)(=O)c1cc(Nc2nccc(Nc3c(Cl)ccc4c3OCO4)n2)cc(N2CCOCC2)c1
> 30000	370	CS(=O)(=O)Nc1cc(Nc2nccc(Nc3c(Cl)ccc4c3OCO4)n2)cc(C(N)=O)c1
900		NC(=O)c1cccc(Nc2nccc(Nc3c(Cl)ccc4c3OCO4)n2)c1
887	13	NC(=O)c1cc(Nc2nccc(Nc3c(Cl)ccc4c3OCO4)n2)cc(N2CCOCC2)c1
2050	12	CS(=O)(=O)Nc1cc(Nc2nccc(Nc3c(Cl)ccc4c3OCO4)n2)cc(S(C)(=O)=O)c1
170	2	CS(=O)(=O)Nc1cc(Nc2nccc(Nc3c(Cl)ccc4c3OCO4)n2)cc(N2CCOCC2)c1

— ChEMBL document CHEMBL1143442, “Inhibitors of the tyrosine kinase EphB4. Part 2: structure-based discovery and optimisation of 3,5-bis substituted anilinopyrimidines” (Bioorg Med Chem Lett, 2008)
